# “And” between values parts separate entries of the source, which are not always exact repeats. Equal entries are not always repeated. Where two headings read alike, the source gives them in different places. Primed or numbered codes have the meaning given here. Where no end group is shown, it is not given here. FITC″ = fluorescein isothiocyanate label; FITC′ = not defined here
# B1: unlabeled αIIb peptide (peptide)
# peptide: Ac-LVLAMWKVGFFKRNRK
# notes: integrin αIIb, stretch at the start of the cytoplasmic domain; last printed residue of the peptide; also called unlabeled peptide; source: synthetic peptide (custom synthesized, Peptide 2.0, purity >95.00%)
# B2: FITC-labeled αIIb peptide from the cytoplasmic domain of integrin αIIb (peptide)
# peptide: Ac-LVLAMWKVGFFKRNRK-{FITC′}
# notes: integrin αIIb, stretch at the start of the cytoplasmic domain; last printed residue of the peptide; The C-terminal K probably carries the FITC (surmised); also called F-αIIb; F-αIIb peptide; source: synthetic peptide (custom synthesized, Peptide 2.0, purity 95.83%)
# B3: GST-tagged recombinant CIB1 (calcium- and integrin-binding protein 1) (natural protein)
# chain: SKELLAEYQDLTFLTKQEILLAHRRFCELLPQEQRSVESSLRAQVPFEQILSLPELKANPFKERICRVFSTSPAKDSLSFEDFLDLLSVFSDTATPDIKSHYAFRIFDFDDDGTLNREDLSRLVNCLTGEGEDTRLSASEMKQLIDNILEESDIDRDGTINLSEFQHVISRSPDFASSFKIVL
# notes: Printed molecular weight of GST-CIB1 is 48 kDa against 26 kDa for GST alone, which would fit whole CIB1 (surmised); Vector family pGEX-4T is named for the empty vector; also called GST-CIB1; CIB1-GST
# Experiments:
# [1] = In vitro ADME: solubility; assay type: physicochemical; conditions: read-out: Solubility
# [2] = In vitro ADME: PAMPA permeability
# CIB1-(His)6 = biological target: T1, CIB1-(His)6 (Homo sapiens, UniProt Q99828); assay: Microscale thermophoresis (MST) protein and small-molecule binding
# T1 construct: made in house
# T1 sequence (Q99828 1-191): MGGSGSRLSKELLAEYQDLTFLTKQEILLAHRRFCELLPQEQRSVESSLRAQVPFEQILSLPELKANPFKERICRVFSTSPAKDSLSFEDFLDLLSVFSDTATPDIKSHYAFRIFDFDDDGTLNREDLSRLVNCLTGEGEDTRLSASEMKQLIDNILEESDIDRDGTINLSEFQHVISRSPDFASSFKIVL
# Protocol: Determining a direct measurement of a molecule’s binding interaction with its target is a vital parameter for characterizing a chemical probe. We employed microscale thermophoresis (MST) for this purpose, leveraging its sensitivity and capacity to deliver quantitative data on the binding interaction.[35] […] We began by testing increasing amounts of the compound(s) and incubating them with the fluorescently labeled CIB1-(His)6, followed by the detection of the MST traces on the NT automated instrument (for more details see Materials and Methods Section). […] We were able to rule out compound interference with the histidine tag on CIB1 and/or the fluorophore used for the MST assay by testing the compounds with a fluorescently labeled hexa-histidine peptide (Figure S8B).
# The binding affinity of the compounds to the CIB1-(His)6 protein was evaluated using microscale thermophoresis (MST). The recombinant protein was labeled with a fluorophore using Monolith His-tag labeling RED-tris-NTA second Generation kit (Nanotemper Technologies, Munich, Germany) following the manufacturer’s protocol. Compounds were titrated in a 2-fold dilution series (16 points, final concentration range of 6.1 nM to 200 μM) and incubated with the same volume of 50 nM (final concentration; 25 nM RED-tris-NTA) labeled recombinant protein for 30 min at RT (20 μL final assay volume). […] The dissociation constant (Kd) values were calculated by fitting the thermophoresis signal at 20 s of the thermograph using the MO Affinity Analysis software (Nanotemper Technologies, Munich, Germany) and confirmed using GraphPad Prism.
# washed human platelets = assay: Human platelet aggregation assay (thrombin-induced); assay type: cell-based; conditions: for inhibition at 10 µM: Homo sapiens, Platelet, single concentration of 10 μM (n = 3), thrombin; for Thrombin Assay 10 µM (%): platelet aggregation inhibition at 10 µM
# Excerpt: A classical challenge in target-based drug discovery is moving from biochemical to cellular assay and the essential step of determining if the compounds of interest can perform in a cellular context. After characterization of the compounds in a series of biochemical assay formats, our next step was to assess their activity in a cellular environment. Our previous studies have shown that the interaction of the cytoplasmic domain of integrin αIIbβ3, a key regulator of platelet aggregation, with CIB1, is involved in downstream signaling in platelet activation and aggregation. We sought to determine whether our candidate compounds were inhibiting this interaction by evaluating them for platelet function in a human platelet aggregation assay. We prepared platelet-rich plasma (PRP) and washed the platelets as previously described[44] and then performed a platelet aggregation assay using the washed platelet suspensions (2 × 10^8/platelets/mL) followed by the recording of aggregation traces (see Materials and Methods Section). To induce platelet aggregation, 0.03 U/mL of thrombin, a physiological agonist of platelet activation, was used.
# Figure 6 Effect of compounds on human platelet activation. Representative platelet aggregation tracings of washed human platelet suspensions pretreated for 30 min at 37 °C with vehicle (DMSO) or compounds at indicated concentrations followed by activation with thrombin (0.03–0.1 U/mL). Panel (A): NCGC00071855. Panel (B–D): NCGC00351170. Panel (E): CD62P exposure was in the presence of NCGC00351170. Data represents mean ± SEM, n = 4 individual experiments; ns = non significant *P < 0.05, ***P < 0.001, ****P < 0.0001.
# Whole blood was drawn by venipuncture from healthy adult volunteers (of both gender and race) with informed consent. Approval was obtained from the institutional review boards of Thomas Jefferson University, according to the Declaration of Helsinki. Blood was collected in acidified citrate dextrose as an anticoagulant. Platelet-rich plasma (PRP) and washed platelets were prepared, as previously described.[44] Platelet aggregation was performed using washed platelet suspensions containing 2 × 10^8 platelets/mL using a Chrono-Log Lumi-Aggregometer (Chrono-Log), as described previously.[11] Aggregation traces were recorded by using Aggrolink software (Chrono-Log). Thrombin-induced P-selectin (CD62P) exposure was performed using Accuri C6 flowcytometer (BD Bioscience) as described previously.[11]
# Figure S9: Effect of compounds on human platelet activation. Representative platelet aggregation
# tracings of washed human platelet suspensions treated with vehicle (DMSO) or indicated
# compounds at 10 μM for 30 minutes at 37 °C followed by activation with thrombin (0.03U/mL).
# [3] = biological target: T2, CIB1 and αIIb interaction (CIB1-GST : F-αIIb peptide) (Homo sapiens, UniProt Q99828); assay: FP assay, 1536-well qHTS format (primary and confirmatory screen); assay type: binding; conditions: over the concentration range tested
# T2 construct: made in house; host or cells: BL-21 plus RIL cells (E. coli)
# T2 sequence (Q99828 1-191): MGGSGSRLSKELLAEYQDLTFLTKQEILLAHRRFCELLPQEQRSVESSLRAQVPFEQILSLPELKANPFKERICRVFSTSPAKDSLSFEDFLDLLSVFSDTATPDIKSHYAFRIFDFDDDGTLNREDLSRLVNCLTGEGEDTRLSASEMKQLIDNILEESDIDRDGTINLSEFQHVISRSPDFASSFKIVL
# [4] = biological target: T3, CIB1-(His)6 : F-αIIb peptide (Homo sapiens, UniProt Q99828); assay: MST competitive binding study
# T3 construct: made in house
# T3 sequence (Q99828 1-191): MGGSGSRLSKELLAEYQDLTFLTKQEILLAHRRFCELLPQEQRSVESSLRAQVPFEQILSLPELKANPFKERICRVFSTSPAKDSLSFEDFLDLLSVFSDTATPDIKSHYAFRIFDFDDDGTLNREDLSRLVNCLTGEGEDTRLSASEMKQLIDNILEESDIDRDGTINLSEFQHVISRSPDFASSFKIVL
# Protocol: We sought to resolve this discrepancy by performing a competition binding study similar to the conditions of the FP HTS assay by utilizing the F-αIIb probe.
# Figure 4 MST competitive binding assay. We selected 200 nM F-αIIb and a CIB1 concentration of 4 μM and tested both compounds. […] Panel (B) highlights the concentration range in which we observe different activities between the two compounds.
# The binding affinity of the compounds to the CIB1-(His)6 protein in the presence of αIIb peptide was evaluated using FITC-labeled αIIb as well. Following manufacturer’s recommendation,[66] we first determined a minimum concentration of F-αIIb by performing a titration of the fluorophore (1 μM, 1:2, 8-points; final concentration range of 7.8 nM to 1 μM) in a 10 μL assay volume. Solutions were placed in standard capillaries and evaluated for the fluorescent signal using the Monolith NT.115 instrument. […] CIB1-(His)6 protein was titrated in a 2-fold dilution series (16-points, final concentration range of 15 nM to 500 μM), at a final volume of 12.5 μL. An equal volume of [2×] […] Solutions were placed in standard capillaries, incubated for approximately 1 h, and evaluated for a fluorescent signal with 50% LED excitation power, 20, 40, or 60% MST power (low, medium, high, respectively), MST on-time of 30 s, and off-time of 5 s.
# Compounds were titrated in a 2-fold dilution series (16 points, final concentration range of 6.1 nM to 200 μM) and mixed with an equal volume CIB1-(His)6 protein and F-αIIb peptide (final concentrations of 4 μM and 200 nM, respectively). Solutions were incubated for 1 h at RT, then placed in standard capillaries, and evaluated for fluorescent signal (in triplicate) at the following parameters: 50% LED excitation power, 40% MST power, MST on-time of 30 s, and off-time of 5 s using Monolith NT.115 instrument. Dissociation constant (Kd) values were calculated by fitting the thermophoresis signal at 20 s of the thermograph using the MO Affinity Analysis software (Nanotemper Technologies, Munich, Germany) and confirmed using Graphpad Prism 7.
# [5] = In vitro ADME: RLM stability; conditions: rat liver microsomes; read-out: Rat Liver Microsome Stability (t1/2)
# [6] = biological target: T4, CIB1 and αIIb interaction (GST-CIB1 : F-αIIb peptide) (Homo sapiens, UniProt Q99828); assay: FP assay, 384-well format (screen); assay type: binding
# T4 construct: made in house; host or cells: BL-21 plus RIL cells (E. coli)
# T4 sequence (Q99828 1-191): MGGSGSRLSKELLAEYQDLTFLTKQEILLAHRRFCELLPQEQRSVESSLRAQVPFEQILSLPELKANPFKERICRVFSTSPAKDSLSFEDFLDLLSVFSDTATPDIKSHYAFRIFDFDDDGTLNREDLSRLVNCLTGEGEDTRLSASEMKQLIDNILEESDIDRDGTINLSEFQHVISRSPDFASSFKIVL
# [7] = biological target: T4, CIB1 and αIIb interaction (GST-CIB1 : F-αIIb peptide); assay: FP assay, 96-well format (assay development); assay type: binding; conditions: GST-CIB1 1 μM, F-αIIb peptide 100 nM, pre-incubated 1 h, read-out: half maximal inhibitory concentration (IC50)
# [8] = biological target: B3; assay: fluorescence polarisation; competition, 384-well plate; GST-CIB1 1 or 2 μM, F-αIIb 50 nM, unlabeled αIIb peptide 16-point 1:2 dilution (3.05 nM to 100 μM), points >25 μM excluded; room temperature, 1 h; conditions: both partners purified
# [9] = biological target: B3; conditions: both partners purified
# CIB1-(His)6 protein = biological target: T5, CIB1-(His)6 protein (UniProt Q99828 9-191); assay: MST; 200 nM F-αIIb with CIB1-(His)6 titrated 15 nM to 500 μM (16 points); about 1 h; medium (40%) MST power, Monolith NT.115; conditions: both partners purified
# T5 construct: source: purified using a Ni-NTA resin column
# T5 sequence: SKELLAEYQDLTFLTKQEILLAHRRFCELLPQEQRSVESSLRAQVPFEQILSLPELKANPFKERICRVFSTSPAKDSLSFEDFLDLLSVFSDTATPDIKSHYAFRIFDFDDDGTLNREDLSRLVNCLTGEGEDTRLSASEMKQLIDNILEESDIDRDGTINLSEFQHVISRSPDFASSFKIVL
# [10] = biological target: T6, F-scrambled αIIb-peptide (FITC-labeled scrambled control peptide); conditions: both partners purified
# T6 construct: scrambled order of the αIIb peptide's residues; also called labeled scrambled-peptide; scrambled peptide; source: synthetic peptide (custom synthesized, Peptide 2.0, purity 95.37%)
# T6 peptide: Ac-RKLFVKVMFWRLNGAK-{FITC″}
# [11] = biological target: B2; conditions: both partners purified
molecule,measurement,setting,value
O=C(c1ccc(-c2ccccc2)cc1)c1no[n+]([O-])c1C(=O)c1ccc(-c2ccccc2)cc1 [NCGC00351154-01],solubility,[1],1 µg/mL
same,Papp,[2],< 3 ×10⁻⁶ cm/s
same,Kd,"CIB1-(His)6; MST, fluorescently labeled CIB1-(His)6 50 nM, read-out: equilibrium dissociation constant (Kd)",6.7 µM
same,difference in binding affinity,CIB1-(His)6; NCGC00351154 vs NCGC00351170 Kd,2.3 fold
same,inhibition at 10 µM,washed human platelets,16%
same,Thrombin Assay 10 µM (%),washed human platelets,16%
same,activity in the qHTS assay,[3],inactive
same,EC50,"[4]; 200 nM F-αIIb, 4 μM CIB1-(His)6, n = 3/concentration",29 µM
same,difference between the two compounds (EC50),[4]; NCGC00351154 vs NCGC00351170,13.8 fold
O=C(c1ccccc1C(F)(F)F)c1no[n+]([O-])c1C(=O)c1ccccc1C(F)(F)F [NCGC00351167-01],solubility,[1],< 1 µg/mL
same,Papp,[2],< 12.4 ×10⁻⁶ cm/s
same,half-life,[5],2.34 min
same,IC50,"[6]; 384-well FP assay, Table 1, read-out: FP assay IC50",6.68 µM
same,inhibition at 10 µM,washed human platelets,84%
same,Thrombin Assay 10 µM (%),washed human platelets,84%
"Ac-LVLAMWKVGFFKRNRK [unlabeled αIIb peptide, reference compound]",IC50,[7],11.2 µM
same,IC50,"[6]; 384-well, F-αIIb 50 nM, GST-CIB1 1 or 2 μM, RT 1 h, read-out: IC50",~2.7 µM and ~3 µM
B1,IC50,[8],~2.7 µM
same,IC50,[9],~12 µM and 8.6 µM
B2,Kd,CIB1-(His)6 protein,2.6 µM
B3,EC50,[10],1.6 µM
same,EC50,[11],~0.2 µM

# — PMC11249646, “Small-Molecule Disruptors of the Interaction between Calcium- and Integrin-Binding Protein 1 and Integrin αIIbβ3 as Novel Antiplatelet Agents” (ACS Pharmacology & Translational Science, 2024)
